# Measurements as given in US20240409534A1, “CRYSTAL FORM OF METHYLPYRAZOLE-SUBSTITUTED PYRIDOIMIDAZOLE COMPOUND AND PREPARATION METHOD THEREFOR” (priority 2021, published 2024).
# Columns and labels:
# Ba/F3-TEL-FLT1 (VEGFR1) = assay: In vitro proliferation of BaF3 cell line, Ba/F3-TEL-FLT1; assay type: cell-based
# Method: The mother solution was prepared into a total of 9 concentration gradients (10.0000 mM, 2.5000 mM, 0.6250 mM, 0.1563 mM, 0.0391 mM, 0.0098 mM, 0.0024 mM, 0.0006 mM and 0.0002 mM) in a 4-fold dilution and stored in a 96-well plate (Beaver, Suzhou), while the same volume of DMSO solvent was used as a negative control. • 1. Cell suspension in logarithmic growth phase was taken and inoculated in a white 96-well cell culture plate (Corning 3917, NY, USA) with a volume of 95 μL per well (2000 cells/well). • 2. Diluted medium-compound mixture was added in a volume of 5 μL per well, respectively, and the final concentration of DMSO in Ba/F3-TEL-FLT1 (VEGFR1), Ba/F3-TEL-FLT4 (VEGFR3) and Ba/F3-TEL-VEGFR2 cells was 0.1%.
# • 3. The plate was incubated in a 37° C., 5% CO2 incubator for 72 h. • 4. The proliferation inhibitory activity and data analysis of the compound by CellTiter-Glo method were the same as in Experimental embodiment 1.
# [1] = Stability test (high temperature, high humidity, light, accelerated, long-term); assay type: physicochemical
# Text: For tests under high temperature, high humidity and light conditions, samples were put into an open clean weighing bottle, spread into a thin layer of 5 mm or less, and 3 samples (1.1 g/sample) were weighed in parallel at each condition time point. The prepared samples were placed under each condition, and sampled for analysis at each time point.
# For accelerated stability and long-term stability tests, samples were packed into a double-layer pharmaceutical low-density polyethylene bag. Each layer of the pharmaceutical low-density polyethylene bag was sealed with buckles, and then the double-layer low-density polyethylene bag was heat-sealed in an aluminum foil bag. 6 samples (1.1 g/sample) were weighed in parallel at each condition time point. The prepared samples were placed under each condition, and sampled for analysis at each time point.
# [2] = Accelerated stability test (40° C./relative humidity: 75%), Day 0
# [3] = Accelerated stability test (40° C./relative humidity: 75%), Month 1
# [4] = Accelerated stability test (40° C./relative humidity: 75%), Month 2
# [5] = Accelerated stability test (40° C./relative humidity: 75%), Month 3
# [6] = Accelerated stability test (40° C./relative humidity: 75%), Month 6
# [7] = High humidity (25° C./relative humidity: 92.5%, open), Day 5
# [8] = High humidity (25° C./relative humidity: 92.5%, open), Day 10
# [9] = High humidity (25° C./relative humidity: 92.5%, open), Day 30
# [10] = High temperature (60° C., open), Day 5
# [11] = High temperature (60° C., open), Day 10
# [12] = High temperature (60° C., open), Day 30
# [13] = Light (Total illumination: 1.2 × 10^6 Lux · hr/NUV: 200 w · hr/m^2, open), Day 5
# [14] = Light (Total illumination: 1.2 × 10^6 Lux · hr/NUV: 200 w · hr/m^2, open), Day 10
# [15] = Long-term stability test (25° C./relative humidity: 60%), Day 0
# [16] = Long-term stability test (25° C./relative humidity: 60%), Month 3
# [17] = Long-term stability test (25° C./relative humidity: 60%), Month 6
# [18] = Long-term stability test (25° C./relative humidity: 60%), Month 9
compound,measurement,setting,value
CS(=O)(=O)O.Cn1cc(-c2ccn3c(-c4cc(NS(C)(=O)=O)nc(-c5ccc(F)cc5F)c4)cnc3c2)cn1,Maximum inhibition,Ba/F3-TEL-FLT1 (VEGFR1); 72 h,99.34%
same,Minimum inhibition,Ba/F3-TEL-FLT1 (VEGFR1); 72 h,−12.05%
same,IC50,"Ba/F3-TEL-FLT1 (VEGFR1); Mus musculus, BaF3, 72 h, read-out: Relative IC50",46 nM
same,Content,[1]; [2],97.9%
same,Crystal form (XRPD),[1]; [2],Crystal form A
same,Total impurities,[1]; [2],1.2%
same,Content,[1]; [3],98.0%
same,Crystal form (XRPD),[1]; [3],Crystal form A
same,Total impurities,[1]; [3],1.3%
same,Content,[1]; [4],97.6%
same,Crystal form (XRPD),[1]; [4],Crystal form A
same,Total impurities,[1]; [4],1.2%
same,Content,[1]; [5],98.0%
same,Crystal form (XRPD),[1]; [5],Crystal form A
same,Total impurities,[1]; [5],1.2%
same,Content,[1]; [6],98.5%
same,Crystal form (XRPD),[1]; [6],Crystal form A
same,Total impurities,[1]; [6],1.2%
same,Content,[1]; Day 0,97.9%
same,Crystal form (XRPD),[1]; Day 0,Crystal form A
same,Total impurities,[1]; Day 0,1.2%
same,Content,[1]; [7],96.8%
same,Crystal form (XRPD),[1]; [7],Crystal form A
same,Total impurities,[1]; [7],1.2%
same,Content,[1]; [8],98.8%
same,Crystal form (XRPD),[1]; [8],Crystal form A
same,Total impurities,[1]; [8],1.2%
same,Content,[1]; [9],98.0%
same,Crystal form (XRPD),[1]; [9],Crystal form A
same,Total impurities,[1]; [9],1.3%
same,Content,[1]; [10],97.0%
same,Crystal form (XRPD),[1]; [10],Crystal form A
same,Total impurities,[1]; [10],1.3%
same,Content,[1]; [11],98.5%
same,Crystal form (XRPD),[1]; [11],Crystal form A
same,Total impurities,[1]; [11],1.1%
same,Content,[1]; [12],98.2%
same,Crystal form (XRPD),[1]; [12],Crystal form A
same,Total impurities,[1]; [12],1.2%
same,Content,[1]; [13],98.4%
same,Crystal form (XRPD),[1]; [13],Crystal form A
same,Total impurities,[1]; [13],1.2%
same,Content,[1]; [14],97.7%
same,Crystal form (XRPD),[1]; [14],Crystal form A
same,Total impurities,[1]; [14],1.1%
same,Content,[1]; [15],97.9%
same,Crystal form (XRPD),[1]; [15],Crystal form A
same,Total impurities,[1]; [15],1.2%
same,Content,[1]; [16],98.3%
same,Crystal form (XRPD),[1]; [16],Crystal form A
same,Total impurities,[1]; [16],1.2%
same,Content,[1]; [17],98.6%
same,Crystal form (XRPD),[1]; [17],Crystal form A
same,Total impurities,[1]; [17],1.2%
same,Content,[1]; [18],97.6%
same,Crystal form (XRPD),[1]; [18],Crystal form A
same,Total impurities,[1]; [18],1.2%
